Measured values published in patent US20230000773A1, “NOVEL HEADGROUP LIPID COMPOUNDS AND COMPOSITIONS FOR INTRACELLULAR DELIVERY OF THERAPEUTIC AGENTS” (ModernaTX, Inc., priority 2019, published 2023).

Columns and labels:
[1] = Size and polydispersity index of nanoparticles comprising compounds of the disclosure; format: physicochemical; settings: compound:DSPC:cholesterol:PEG 2 50:10:38:2 mol %
Procedure, shortened: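 LNPs contained test lipid:DSPC:cholesterol:PEG 2 at 50:10:38:2 mol %. Size and polydispersity index were measured by dynamic light scattering.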

[2] = Encapsulation efficiency (% EE), ribogreen; format: physicochemical; settings: nanoparticles, compound:DSPC:cholesterol:PEG 2 50:10:38:2 mol %
Procedure, shortened: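 Encapsulated RNA fraction determined by fluorescence of free RNA before and after LNP disruption with detergent or solvent. LNPs contained ionizable lipid:DSPC:cholesterol:PEG lipid at 50:10:38:2 mol %.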

[3] = Encapsulation efficiency (% EE), ribostar; format: physicochemical; settings: nanoparticles, compound:DSPC:cholesterol:PEG 2 50:10:38:2 mol %
Source text: The efficiency of encapsulation of a therapeutic and/or prophylactic describes the amount of therapeutic and/or prophylactic that is encapsulated or otherwise associated with a lipid nanoparticle (e.g., an empty LNP or a loaded LNP) after preparation, relative to the initial amount provided. The encapsulation efficiency is desirably high (e.g., close to 100%). The encapsulation efficiency may be measured, for example, by comparing the amount of therapeutic and/or prophylactic in a solution containing the lipid nanoparticle (e.g., an empty LNP or a loaded LNP) before and after breaking up the lipid nanoparticle (e.g., an empty LNP or a loaded LNP) with one or more organic solvents or detergents. Fluorescence may be used to measure the amount of free therapeutic and/or prophylactic (e.g., RNA) in a solution. For the lipid nanoparticles (e.g., empty LNPs or loaded LNPs) described herein, the encapsulation efficiency of a therapeutic and/or prophylactic may be at least 50%, for example 50%, 55%, 60%, 65%, 70%, 75%, 80%, 85%, 90%, 91%, 92%, 93%, 94%, 95%, 96%, 97%, 98%, 99%, or 100%. In some embodiments, the encapsulation efficiency may be at least 80%. In certain embodiments, the encapsulation efficiency may be at least 90%. In some embodiments, the encapsulation efficiency of the therapeutic and/or prophylactic agent is between 80% and 100%.
Nanoparticle compositions including a therapeutic and/or prophylactic can be optimized according to the selection of a compound according to Formula (I), (I-1), (A), (A-1), (A-1a), or (A-1b), the selection of additional lipids, the amount of each lipid in the lipid component, and the wt:wt ratio of the lipid component to the therapeutic and/or prophylactic. Nanoparticle compositions including DSPC as a phospholipid, cholesterol as a structural lipid, PEG 2 as a PEG lipid, and a compound according to Formula (I), (I-1), (A), (A-1), (A-1a), or (A-1b) were prepared. The ratios of the lipids were 50:10:38:2 mol % for the lipid according to Formula (I), (I-1), (A), (A-1), (A-1a), or (A-1b):DSPC:cholesterol:PEG 2. Tables 2a, 2b, and 3-5 summarize the characteristics of the formulations.
Table 4 summarizes the surface hydrophobicity of nanoparticles comprising compounds of the disclosure as determined by Generalized Polarization by Laurdan (GPL). Laurdan, a fluorescent aminonaphthalene ketone lipid, was post-inserted into the nanoparticle surface and the fluorescence spectrum of Laurdan was collected to determine the normalized Generalized Polarization (N-GP). Higher N-GP indicates a less polar surface.

[4] = Apparent LNP pKa by 2-(p-toluidino)-6-napthalene sulfonic acid (TNS) assay; format: physicochemical; settings: pH at half of maximum fluorescence
[5] = Surface hydrophobicity by Generalized Polarization by Laurdan (GPL); format: physicochemical; settings: normalized Generalized Polarization by Laurdan; higher N-GP = less polar surface
Procedure, shortened: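 LNPs contained ionizable lipid:DSPC:cholesterol:PEG lipid at 50:10:38:2 mol %. Laurdan was post-inserted into the particle surface, and its fluorescence spectrum gave normalized generalized polarization (N-GP); higher N-GP means a less polar surface.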

[6] = Heparin-sepharose binding of nanoparticles
[7] = tested on: hEPO mRNA; test: hEPO expression in CD1-mice after intravenous administration of nanoparticles; format: in vivo; settings: 6 h after intravenous administration, mRNA dose 0.5 mg/kg, N:P 3.4, compound:DSPC:cholesterol:PEG 2 50:10:38:2
Protocol: The expression of hEPO mRNA in CD1-mice was measured 6 h after intravenous administration of nanoparticles comprising a compound of the disclosure, DSPC, cholesterol, and PEG 2 in a ratio of 50:10:38:2. […] Each composition was dosed to 8 animals at an mRNA dose of 0.5 mg/kg.

[8] = tested on: serum protein ApoE; test: ApoE binding affinity of nanoparticles (bead binding, flow cytometry)
Protocol: The ApoE binding affinity, i.e., the affinity of binding between nanoparticles comprising compounds of the disclosure and the serum protein ApoE, was determined by binding the nanoparticles to beads, then incubating them with known quantities of […]. The quantity of protein bound to the nanoparticle was then determined by flow cytometry.

[9] = tested on: mRNA; test: mRNA integrity in nanoparticles by RP-IP HPLC (UV 260 nm); format: physicochemical
Protocol: Integrity of mRNA comprised in nanoparticles of the disclosure, i.e., the percentages of intact mRNA, mRNA adducts, and mRNA hydrolysis products, […] (Reverse-Phase Ion-Pairing HPLC) using UV detection at 260 nm. Total purity and impurities are calculated as percent peak area.

[10] = mRNA integrity after 2 weeks at 25° C., percent peak area
[11] = mRNA integrity at t = 0, percent peak area

SMILES | PDI [1] | Size (nm) [1] [nm] | % EE (ribogreen) [2] [%] | % EE (ribostar) [3] [%] | LogIC50 (pKa) [4] | Average N-GP [5] | Relative % Area Bound by LNP [6] [%] | Avg. [hEPO] mIU/mL [7] [mIU/mL] | Median Fluorescence Intensity, PE [8] | Adduct [9, 10] [%] | Hydrolysis Product [9, 10] [%] | Intact [9, 10] [%] | Adduct [9, 11] [%] | Hydrolysis Product [9, 11] [%] | Intact [9, 11] [%]
CCCCCCCCC(CC)OC(=O)CCCCCCCN(CCCCCCCC(=O)OC(CCCCCCCC)CCCCCCCC)CCCNS(=O)(=O)C1CC1 (stereo not drawn) [Compound 67, Heptadecan-9-yl 8-((3-(cyclopropanesulfonamido)propyl)(8-oxo-8-(undecan-3-yloxy)octyl)amino)octanoate] | 0.123 | 71.7 | 84.1 | 48.5 | 6.67 | 0.890 | 6.69 | 1.43E+06 | 146715 | 26.3 | 39.0 | 34.7 | 10.1 | 32.8 | 57.1
CCCCCCCCC(CC)OC(=O)CCCCCCCN(CCCCCCCC(=O)OC(CCCCCCCC)CCCCCCCC)CCCNS(=O)(=O)C[C@H]1COCCO1 (stereo partly drawn) [Compound 70, Heptadecan-9-yl 8-((3-((((R)-1,4-dioxan-2-yl)methyl)sulfonamido)propyl)(8-oxo-8-(undecan-3-yloxy)octyl)amino)octanoate] | 0.123 | 72.6 | 89.9 | 60.7 | 6.75 | 0.902 | 0 | 9.18E+05 | 121247 | 12.7 | 50.1 | 37.2 | 10.3 | 40.2 | 49.5
CCCCCCCCC(CC)OC(=O)CCCCCCCN(CCCCCCCC(=O)OC(CCCCCCCC)CCCCCCCC)CCCNS(=O)(=O)Cc1ccon1 (stereo not drawn) [Compound 71, Heptadecan-9-yl 8-((3-((isoxazol-3-ylmethyl)sulfonamido)propyl)(8-oxo-8-(undecan-3-yloxy)octyl)amino)octanoate] | 0.109 | 64.7 | 90.8 | 50.7 | 6.54 | 0.874 | 0 | 1.50E+06 | 147047 | 20.2 | 35.9 | 43.9 | 8.7 | 30.8 | 60.6
CCCCCCCCC(CC)OC(=O)CCCCCCCN(CCCCCCCC(=O)OC(CCCCCCCC)CCCCCCCC)CCCNC1=C(C(N)=O)C(=O)OC1 (stereo not drawn) [Compound 72, Heptadecan-9-yl 8-((3-((4-carbamoyl-5-oxo-2,5-dihydrofuran-3-yl)amino)propyl)(8-oxo-8-(undecan-3-yloxy)octyl)amino)octanoate] | 0.090 | 76.7 | 91.2 | 78.6 | 6.39 | 0.988 | 0 | 7.36E+05 | 78901 | 24.9 | 23.5 | 51.6 | 5.6 | 16.8 | 77.7
